Here are results for ten compounds from ChEMBL document CHEMBL1133702.

For the experiment, the target named is Estrogen receptor (Ovis aries) (UniProt P49885+Q9TU15).
`C[C@]12C[C@H](c3ccc(OCCCCCNC(=O)CBr)cc3)[C@@H]3c4ccc(O)cc4CC[C@H]3[C@@H]1CC[C@@H]2O` showed an RAC app of 17.1.

Regarding `C[C@]12C[C@H](c3ccc(OCCI)cc3)[C@@H]3c4ccc(O)cc4CC[C@H]3[C@@H]1CC[C@@H]2O`, the RAC app was 10.6.

In turn, `CN(CC#Cc1ccc([C@H]2C[C@]3(C)[C@@H](O)CC[C@H]3[C@@H]3CCc4cc(O)ccc4[C@H]32)cc1)C(=O)CCl` yielded an RAC app of 19.4.

In the case of `C[C@]12C[C@H](c3ccc(OCCCCCI)cc3)[C@@H]3c4ccc(O)cc4CC[C@H]3[C@@H]1CC[C@@H]2O`, the RAC app stood at 8.23.

`CN(CCCCCOc1ccc([C@H]2C[C@]3(C)[C@@H](O)CC[C@H]3[C@@H]3CCc4cc(O)ccc4[C@H]32)cc1)C(=O)CBr` gave an RAC app of 9.7.

`CN(CCOc1ccc([C@H]2C[C@]3(C)[C@@H](O)CC[C@H]3[C@@H]3CCc4cc(O)ccc4[C@H]32)cc1)C(=O)CBr` came in with an RAC app of 4.22.

On to `C[C@]12C[C@H](c3ccc(OCCNC(=O)CCl)cc3)[C@@H]3c4ccc(O)cc4CC[C@H]3[C@@H]1CC[C@@H]2O`, for which the RAC app worked out at 3.3.

`C[C@]12C[C@H](c3ccc(OCCOS(C)(=O)=O)cc3)[C@@H]3c4ccc(O)cc4CC[C@H]3[C@@H]1CC[C@@H]2O` came in with an RAC app of 39.9.

For `CN(CCOc1ccc([C@H]2C[C@]3(C)[C@@H](O)CC[C@H]3[C@@H]3CCc4cc(O)ccc4[C@H]32)cc1)C(=O)CCl`, the RAC app amounted to 6.96.

In turn, `C[C@]12C[C@H](c3ccc(C#CCNC(=O)CCl)cc3)[C@@H]3c4ccc(O)cc4CC[C@H]3[C@@H]1CC[C@@H]2O` displayed an RAC app of 14.5.
